Test results reported in paper PMC7180948, “New Insights into 4-Anilinoquinazolines as Inhibitors of Cardiac Troponin I–Interacting Kinase (TNNi3K)” (Molecules, 2020).

Experiments:
Experiment in all cases: biochemical
Parameters in all cases: KINOMEscan competition binding panel (Eurofins DiscoverX), single concentration, percent inhibition
Settings in all cases: read-out: 15 at 1 µM % inhibition
[1] = target: AURKA (Homo sapiens, UniProt O14965)
Procedure, shortened: (§1)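 Values come from single-concentration (1 µM) profiling in the Eurofins DiscoverX KINOMEscan competition-binding platform, which covers over 400 kinases.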

[2] = target: BMPR1B (Homo sapiens, UniProt O00238)
Procedure, shortened: as §1

[3] = target: T1, BRK (Homo sapiens, UniProt Q13882)
T1 construct: gene PTK6
T1 sequence (Q13882 whole entry): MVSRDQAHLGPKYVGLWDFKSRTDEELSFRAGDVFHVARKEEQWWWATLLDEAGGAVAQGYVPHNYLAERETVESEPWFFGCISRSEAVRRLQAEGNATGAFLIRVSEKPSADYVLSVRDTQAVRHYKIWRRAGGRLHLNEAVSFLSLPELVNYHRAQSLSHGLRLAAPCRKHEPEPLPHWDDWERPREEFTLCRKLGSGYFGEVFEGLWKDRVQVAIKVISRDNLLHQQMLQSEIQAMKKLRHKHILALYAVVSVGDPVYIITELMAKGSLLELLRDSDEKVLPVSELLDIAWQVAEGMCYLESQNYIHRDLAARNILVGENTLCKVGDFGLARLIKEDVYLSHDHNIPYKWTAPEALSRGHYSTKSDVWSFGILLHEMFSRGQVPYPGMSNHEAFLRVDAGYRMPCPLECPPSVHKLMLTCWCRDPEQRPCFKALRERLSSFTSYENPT
Procedure, shortened: as §1

[4] = target: BRSK2 (Homo sapiens, UniProt Q8IWQ3)
Procedure, shortened: as §1

[5] = target: CDK7 (Homo sapiens, UniProt P50613)
Procedure, shortened: as §1

[6] = target: EGFR(L858R,T790M) (Homo sapiens, UniProt P00533, L858R/T790M)
Procedure, shortened: as §1

[7] = target: EPHA3 (Homo sapiens, UniProt P29320)
Procedure, shortened: as §1

[8] = target: ERBB3 (Homo sapiens, UniProt P21860)
Procedure, shortened: as §1

[9] = target: HIPK1 (Homo sapiens, UniProt Q86Z02)
Chain of HIPK1 (Q86Z02 whole entry): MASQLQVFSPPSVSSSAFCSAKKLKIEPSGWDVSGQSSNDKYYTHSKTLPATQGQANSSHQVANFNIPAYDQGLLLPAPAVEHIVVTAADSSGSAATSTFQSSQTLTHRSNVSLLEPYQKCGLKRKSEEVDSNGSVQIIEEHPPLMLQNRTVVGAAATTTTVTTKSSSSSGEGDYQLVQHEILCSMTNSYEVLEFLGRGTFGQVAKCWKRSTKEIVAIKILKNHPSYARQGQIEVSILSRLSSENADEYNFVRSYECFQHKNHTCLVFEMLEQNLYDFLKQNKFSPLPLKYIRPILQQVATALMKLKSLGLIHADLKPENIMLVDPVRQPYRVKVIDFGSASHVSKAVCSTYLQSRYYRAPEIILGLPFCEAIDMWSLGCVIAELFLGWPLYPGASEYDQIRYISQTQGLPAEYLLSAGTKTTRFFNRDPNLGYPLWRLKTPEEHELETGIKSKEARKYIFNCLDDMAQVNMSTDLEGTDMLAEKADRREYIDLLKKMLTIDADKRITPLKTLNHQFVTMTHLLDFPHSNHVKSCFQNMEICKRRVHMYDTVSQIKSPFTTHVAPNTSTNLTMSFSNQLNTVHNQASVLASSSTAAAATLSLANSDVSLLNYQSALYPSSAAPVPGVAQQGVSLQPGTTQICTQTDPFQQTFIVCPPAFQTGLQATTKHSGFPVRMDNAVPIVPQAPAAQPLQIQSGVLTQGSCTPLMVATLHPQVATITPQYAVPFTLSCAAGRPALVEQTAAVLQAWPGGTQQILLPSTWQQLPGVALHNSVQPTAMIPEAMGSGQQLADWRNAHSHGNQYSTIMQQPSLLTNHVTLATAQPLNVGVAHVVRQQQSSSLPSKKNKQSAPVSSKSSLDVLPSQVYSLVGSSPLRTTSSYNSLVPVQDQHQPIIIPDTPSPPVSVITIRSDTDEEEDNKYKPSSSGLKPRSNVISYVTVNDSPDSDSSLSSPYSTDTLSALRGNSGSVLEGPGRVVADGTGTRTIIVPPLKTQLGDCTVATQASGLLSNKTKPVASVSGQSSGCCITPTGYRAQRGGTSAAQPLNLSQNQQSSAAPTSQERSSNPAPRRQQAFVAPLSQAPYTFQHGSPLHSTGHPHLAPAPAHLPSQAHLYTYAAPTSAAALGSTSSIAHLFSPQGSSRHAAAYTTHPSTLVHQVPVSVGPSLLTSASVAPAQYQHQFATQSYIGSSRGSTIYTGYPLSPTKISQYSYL
Procedure, shortened: as §1

[10] = target: HIPK2 (Homo sapiens, UniProt Q9H2X6)
Chain of HIPK2 (Q9H2X6 whole entry): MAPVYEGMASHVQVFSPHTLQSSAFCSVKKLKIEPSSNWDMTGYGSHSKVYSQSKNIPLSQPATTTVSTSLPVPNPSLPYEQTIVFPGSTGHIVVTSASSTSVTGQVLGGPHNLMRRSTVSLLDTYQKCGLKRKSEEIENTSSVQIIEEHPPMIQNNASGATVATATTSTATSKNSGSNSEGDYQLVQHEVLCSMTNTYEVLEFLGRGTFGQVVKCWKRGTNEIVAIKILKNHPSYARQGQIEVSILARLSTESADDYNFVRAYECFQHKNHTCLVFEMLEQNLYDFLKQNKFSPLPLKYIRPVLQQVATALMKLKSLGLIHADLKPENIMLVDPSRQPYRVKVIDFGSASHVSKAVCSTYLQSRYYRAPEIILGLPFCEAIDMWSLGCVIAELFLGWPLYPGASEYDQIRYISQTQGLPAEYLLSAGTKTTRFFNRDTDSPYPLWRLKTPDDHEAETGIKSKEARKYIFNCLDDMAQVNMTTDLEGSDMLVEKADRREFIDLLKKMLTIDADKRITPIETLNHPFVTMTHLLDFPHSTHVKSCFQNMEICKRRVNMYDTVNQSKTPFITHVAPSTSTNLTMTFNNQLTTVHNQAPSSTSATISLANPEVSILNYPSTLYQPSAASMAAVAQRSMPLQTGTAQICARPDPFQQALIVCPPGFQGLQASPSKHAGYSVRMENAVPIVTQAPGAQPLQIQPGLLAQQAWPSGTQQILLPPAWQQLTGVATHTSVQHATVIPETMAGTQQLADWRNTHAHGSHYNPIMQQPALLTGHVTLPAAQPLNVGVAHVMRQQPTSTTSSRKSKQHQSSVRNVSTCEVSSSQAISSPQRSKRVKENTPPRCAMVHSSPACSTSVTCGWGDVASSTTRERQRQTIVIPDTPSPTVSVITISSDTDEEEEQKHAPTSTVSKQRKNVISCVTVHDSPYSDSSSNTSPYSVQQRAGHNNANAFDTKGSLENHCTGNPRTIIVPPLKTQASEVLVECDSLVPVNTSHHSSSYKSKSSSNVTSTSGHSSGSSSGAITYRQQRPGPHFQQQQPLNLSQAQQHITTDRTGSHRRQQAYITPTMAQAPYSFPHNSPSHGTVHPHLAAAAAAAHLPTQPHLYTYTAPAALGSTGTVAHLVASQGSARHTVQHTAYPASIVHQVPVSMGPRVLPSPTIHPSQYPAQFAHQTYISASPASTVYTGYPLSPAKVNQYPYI
Procedure, shortened: as §1

[11] = target: T2, ICK (Homo sapiens, UniProt Q9UPZ9)
T2 construct: gene CILK1
Procedure, shortened: as §1

[12] = target: KIT(D816V) (Homo sapiens, UniProt P10721, D816V)
Procedure, shortened: as §1

[13] = target: LATS1 (Homo sapiens, UniProt O95835)
Procedure, shortened: as §1

[14] = target: LIMK1 (Homo sapiens, UniProt P53667)
Procedure, shortened: as §1

[15] = target: T3, MINK (Homo sapiens, UniProt Q8N4C8)
T3 construct: gene MINK1
Procedure, shortened: as §1

[16] = target: T4, MLK2 (Homo sapiens, UniProt Q02779)
T4 construct: gene MAP3K10
Procedure, shortened: as §1

[17] = target: T5, PCTK3 (Homo sapiens, UniProt Q07002)
T5 construct: gene CDK18
Procedure, shortened: as §1

[18] = target: ROCK2 (Homo sapiens, UniProt O75116)
Chain of ROCK2 (O75116 whole entry): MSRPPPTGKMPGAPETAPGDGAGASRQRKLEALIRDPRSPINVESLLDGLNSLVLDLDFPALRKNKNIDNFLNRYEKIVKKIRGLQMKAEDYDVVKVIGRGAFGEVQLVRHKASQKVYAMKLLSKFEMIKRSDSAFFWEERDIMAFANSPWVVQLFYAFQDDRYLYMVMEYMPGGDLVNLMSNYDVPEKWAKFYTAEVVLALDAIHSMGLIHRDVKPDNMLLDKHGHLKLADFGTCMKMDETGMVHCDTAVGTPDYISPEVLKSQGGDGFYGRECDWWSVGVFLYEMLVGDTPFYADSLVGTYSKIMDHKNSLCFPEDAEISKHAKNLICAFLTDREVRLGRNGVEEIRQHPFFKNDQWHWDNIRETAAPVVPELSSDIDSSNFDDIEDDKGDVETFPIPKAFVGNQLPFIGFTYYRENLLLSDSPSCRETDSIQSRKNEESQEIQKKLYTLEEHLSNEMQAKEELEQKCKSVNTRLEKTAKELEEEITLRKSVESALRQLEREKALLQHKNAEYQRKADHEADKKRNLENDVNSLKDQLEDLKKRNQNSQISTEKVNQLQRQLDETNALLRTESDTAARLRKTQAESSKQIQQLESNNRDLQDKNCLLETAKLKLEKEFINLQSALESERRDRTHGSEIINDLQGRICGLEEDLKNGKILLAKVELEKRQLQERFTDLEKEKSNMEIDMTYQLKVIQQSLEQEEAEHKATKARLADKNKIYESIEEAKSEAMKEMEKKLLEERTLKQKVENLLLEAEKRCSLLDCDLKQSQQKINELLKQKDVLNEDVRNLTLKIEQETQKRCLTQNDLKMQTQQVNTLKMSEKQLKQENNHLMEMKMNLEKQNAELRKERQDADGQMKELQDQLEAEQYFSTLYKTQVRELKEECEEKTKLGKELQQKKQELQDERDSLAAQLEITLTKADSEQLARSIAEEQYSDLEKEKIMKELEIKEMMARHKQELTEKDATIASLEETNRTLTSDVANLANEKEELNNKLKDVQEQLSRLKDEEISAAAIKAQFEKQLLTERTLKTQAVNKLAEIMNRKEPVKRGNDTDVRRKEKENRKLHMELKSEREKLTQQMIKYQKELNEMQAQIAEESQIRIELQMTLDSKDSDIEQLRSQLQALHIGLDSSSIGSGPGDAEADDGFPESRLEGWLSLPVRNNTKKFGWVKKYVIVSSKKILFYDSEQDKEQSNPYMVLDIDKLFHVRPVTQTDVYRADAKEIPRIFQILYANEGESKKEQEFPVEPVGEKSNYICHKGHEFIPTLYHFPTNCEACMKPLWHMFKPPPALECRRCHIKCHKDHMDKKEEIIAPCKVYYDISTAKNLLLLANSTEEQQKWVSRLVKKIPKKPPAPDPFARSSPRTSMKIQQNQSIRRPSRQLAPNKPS
Procedure, shortened: as §1

[19] = target: T6, RPS6KA5(Kin.Dom.1-N-terminal) (Homo sapiens, UniProt O75582)
T6 construct: Kin.Dom.1-N-terminal
Procedure, shortened: as §1

[20] = target: SIK2 (Homo sapiens, UniProt Q9H0K1)
Procedure, shortened: as §1

[21] = target: T7, SgK110 (Homo sapiens, UniProt P0C264)
T7 construct: gene SBK3
T7 sequence (P0C264 whole entry): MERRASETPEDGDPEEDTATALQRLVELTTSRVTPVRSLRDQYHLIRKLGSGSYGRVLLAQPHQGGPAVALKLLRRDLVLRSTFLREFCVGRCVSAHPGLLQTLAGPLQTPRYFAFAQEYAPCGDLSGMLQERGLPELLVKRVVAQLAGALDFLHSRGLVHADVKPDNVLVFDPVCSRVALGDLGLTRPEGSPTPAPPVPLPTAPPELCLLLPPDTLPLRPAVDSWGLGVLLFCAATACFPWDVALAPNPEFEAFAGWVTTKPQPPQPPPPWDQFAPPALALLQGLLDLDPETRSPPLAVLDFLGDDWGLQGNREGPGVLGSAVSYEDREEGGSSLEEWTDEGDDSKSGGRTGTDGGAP
Procedure, shortened: as §1

[22] = target: TAOK2 (Homo sapiens, UniProt Q9UL54)
Procedure, shortened: as §1

[23] = target: TESK1 (Homo sapiens, UniProt Q15569)
Procedure, shortened: as §1

[24] = target: TSSK1B (Homo sapiens, UniProt Q9BXA7)
Chain of TSSK1B (Q9BXA7 whole entry): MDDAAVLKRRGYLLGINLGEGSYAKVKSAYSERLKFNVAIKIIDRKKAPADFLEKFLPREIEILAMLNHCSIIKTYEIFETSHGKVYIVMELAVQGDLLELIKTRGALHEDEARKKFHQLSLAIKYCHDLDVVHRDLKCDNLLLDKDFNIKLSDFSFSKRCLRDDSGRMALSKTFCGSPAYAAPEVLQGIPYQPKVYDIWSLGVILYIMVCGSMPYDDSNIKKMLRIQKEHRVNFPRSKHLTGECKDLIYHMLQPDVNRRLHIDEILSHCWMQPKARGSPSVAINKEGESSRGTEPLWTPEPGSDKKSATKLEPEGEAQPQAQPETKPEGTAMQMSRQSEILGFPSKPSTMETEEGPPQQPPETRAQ
Procedure, shortened: as §1

CNS(=O)(=O)c1ccc(N(C)C)c(Nc2nc(C)nc3cc(OC)c(OC)cc23)c1 [compound 15, 3-((6,7-dimethoxy-2-methylquinazolin-4-yl)amino)-4-(dimethylamino)-N-methylbenzenesulfonamide]
inhibition at 1 µM [1]: 14%
inhibition at 1 µM [2]: 31%
inhibition at 1 µM [3]: 0%
inhibition at 1 µM [4]: 21%
inhibition at 1 µM [5]: 18%
inhibition at 1 µM [6]: 16%
inhibition at 1 µM [7]: 2%
inhibition at 1 µM [8]: 16%
inhibition at 1 µM [9]: 7%
inhibition at 1 µM [10]: 9%
inhibition at 1 µM [11]: 12%
inhibition at 1 µM [12]: 4%
inhibition at 1 µM [13]: 14%
inhibition at 1 µM [14]: 0%
inhibition at 1 µM [15]: 22%
inhibition at 1 µM [16]: 0%
inhibition at 1 µM [17]: 0%
inhibition at 1 µM [18]: 5%
inhibition at 1 µM [19]: 0%
inhibition at 1 µM [20]: 4%
inhibition at 1 µM [21]: 0%
inhibition at 1 µM [22]: 15%
inhibition at 1 µM [23]: 1%
inhibition at 1 µM [24]: 9%
